Patent US20100227853A1, “INHIBITORS OF CYCLIC AMP PHOSPHODIESTERASES” (Trustees of Boston College, priority 2008, published 2010)

What was measured:
PDE4A1 = biological target: T1, PDE4A1 (Mus musculus, UniProt O89084); test: cAMP response in yeast strain expressing PDE4A1; assay type: cell-based, Murine
T1 construct: targets used in the assays are full-length proteins (as opposed to simply the catalytic domain); expressed in transfected cells; host or cells: Schizosaccharomyces pombe, PDE gene integrated in place of cgs2
T1 sequence (O89084 1-610 isoform O89084-2): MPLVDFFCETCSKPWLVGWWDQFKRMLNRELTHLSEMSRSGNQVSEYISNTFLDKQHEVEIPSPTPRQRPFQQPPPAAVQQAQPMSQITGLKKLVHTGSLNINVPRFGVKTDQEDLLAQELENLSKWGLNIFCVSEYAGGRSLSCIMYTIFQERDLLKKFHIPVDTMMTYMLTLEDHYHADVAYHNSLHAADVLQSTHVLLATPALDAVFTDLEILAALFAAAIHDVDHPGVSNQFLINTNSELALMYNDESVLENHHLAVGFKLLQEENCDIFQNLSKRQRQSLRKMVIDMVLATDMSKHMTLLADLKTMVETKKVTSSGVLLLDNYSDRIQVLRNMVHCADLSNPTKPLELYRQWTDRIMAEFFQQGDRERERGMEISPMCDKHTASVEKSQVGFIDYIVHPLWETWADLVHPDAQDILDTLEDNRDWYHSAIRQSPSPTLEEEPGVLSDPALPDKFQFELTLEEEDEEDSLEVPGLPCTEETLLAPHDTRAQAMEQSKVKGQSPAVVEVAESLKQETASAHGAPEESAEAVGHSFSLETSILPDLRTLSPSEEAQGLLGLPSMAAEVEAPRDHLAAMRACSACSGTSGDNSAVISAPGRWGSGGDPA
Description: Values represent the average and SD of two or three independent experiments. […] The strains used are as in FIG. 5A, together with strain CHP1141 (PDE8A). Values represent the average and SD of two or three independent experiments.
Thus, PDE inhibition can be indirectly quantitated by measuring the effect of a compound on cAMP levels in target yeast strains.

[1] = system: PDE2A, PDE4A, PDE4B, Cgs2; test: Parallel high throughput 5FOA growth screens of bioactive libraries; assay type: cell-based, murine PDEs; yeast Cgs2; settings: 3,120 bioactive compounds, average 20 μM
Method: High throughput drug screens were carried out at the Broad Institute's Chemical Biology Program screening facility (Broad Institute, Cambridge, Mass.). Depending upon the strain, cultures were pregrown to exponential phase in EMM complete medium containing from 0.5 to 2.5 mM cAMP to repress fbp1-ura4 transcription. […] Starting cell concentrations ranged from 0.5×10^5 to 4×10^5 cells/ml depending on the screening strain. […] Other positive control dishes contained 5 mM cAMP in the 5FOA medium. Cultures were grown for 48 hours at 30° C., sealed in an airtight container with moist paper towels to prevent evaporation. Optical densities (OD600) of cultures were measured using a microplate reader. Bioinformatic analysis of the results to determine composite Z scores was performed as previously described^30, 31.

PDE8A = biological target: T2, PDE8A (Mus musculus, UniProt O88502); test: fbp1-lacZ β-galactosidase reporter assay, PDE8A strain; assay type: cell-based, murine
T2 construct: targets used in the assays are full-length proteins (as opposed to simply the catalytic domain); expressed in transfected cells; host or cells: Schizosaccharomyces pombe, PDE gene integrated in place of cgs2 (strains CHP1141, DDP13)
T2 sequence (O88502 1-823): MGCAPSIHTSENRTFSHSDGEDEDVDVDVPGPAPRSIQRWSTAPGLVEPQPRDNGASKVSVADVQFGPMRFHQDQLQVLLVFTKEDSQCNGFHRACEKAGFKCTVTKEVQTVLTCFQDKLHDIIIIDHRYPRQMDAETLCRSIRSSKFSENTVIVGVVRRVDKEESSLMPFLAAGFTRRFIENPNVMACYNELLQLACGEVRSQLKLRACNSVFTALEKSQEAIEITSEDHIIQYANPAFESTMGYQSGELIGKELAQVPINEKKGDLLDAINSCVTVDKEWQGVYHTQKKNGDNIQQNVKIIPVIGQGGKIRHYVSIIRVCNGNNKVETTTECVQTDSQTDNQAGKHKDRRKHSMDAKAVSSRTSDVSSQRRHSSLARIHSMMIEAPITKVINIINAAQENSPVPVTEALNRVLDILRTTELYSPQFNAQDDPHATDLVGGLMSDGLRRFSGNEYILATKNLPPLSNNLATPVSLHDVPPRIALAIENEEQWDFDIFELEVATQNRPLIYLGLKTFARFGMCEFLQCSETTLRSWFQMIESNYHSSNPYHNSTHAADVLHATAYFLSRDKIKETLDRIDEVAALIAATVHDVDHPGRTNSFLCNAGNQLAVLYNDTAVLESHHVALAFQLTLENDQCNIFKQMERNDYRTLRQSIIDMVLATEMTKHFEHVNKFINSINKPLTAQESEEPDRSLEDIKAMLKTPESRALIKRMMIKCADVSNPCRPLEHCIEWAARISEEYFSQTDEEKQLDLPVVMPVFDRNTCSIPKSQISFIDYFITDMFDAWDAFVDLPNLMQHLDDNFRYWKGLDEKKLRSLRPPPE
Method: β-galactosidase assays and characterization of 5FOA-sensitivity were carried out as previously described^10. cAMP assays were performed on exponential phase cells grown in EMM complete medium (3% glucose), using the Assay Designs cAMP EIA kit, according to manufacturer's instructions (Assay Designs, Ann arbor, Mich.).
The effect of known PDE inhibitors on the expression of the fbp1-lacZ fusion in murine PDE-expressing strains was tested. […] For Table 4 β-galactosidase activity was determined from 3 to 4 independent exponential phase cultures. The average±SD represents specific activity per milligram of soluble protein.

[2] = system: PDE4A, PDE4B, PDE4D, PDE7A, PDE7B, PDE8A, PDE3A; test: Summary of PDE inhibitor profile; set-up: key: (1): Strong PDE7A inhibitor, weak to moderate PDE4A, 4B inhibitor; (2): Strong PDE7A and PDE4s (including PDE4D) inhibitor; (3): Strong PDE7A inhibitor; settings: overall classification, Table 18 footnotes

SMILES	hit in high throughput screens (promotes 5FOA^R growth), in words [1]	further results
Cc1cc(C)nc(SCCS(=O)(=O)c2ccc(C(C)(C)C)cc2)n1 [Compound 26]	–	cAMP Response (% rolipram), 4A1 (PDE4A1): 96.00 % rolipram
Cc1cc2cc3c(C)cc(=O)oc3c(C)c2o1 [trioxsalen]	identified	–
COc1c2ccoc2cc2oc(C)cc(=O)c12 [visnagin]	identified	–
OCCN(CCO)c1nc(N2CCCCC2)c2nc(N(CCO)CCO)nc(N3CCCCC3)c2n1 [dipyridamole, Dipyridamole]	–	inhibition of PDE8A in yeast, in words (PDE8A): not able to be inhibited
COc1ccc2c(c1)C1(C)CCC(=O)CC1CC2 (single isomer, unassigned) [Compound 39]	–	PDE inhibitor profile (Table 18) [2]: 39 (1)
COc1c2occc2c(OC)c2c(=O)cc(C)oc12 [khellin]	identified	–
